Results reported in patent US10059671B2, “Positive allosteric modulators of mGluR3” (Merck Patent GmbH, priority 2013, dated 2018).

Molecular target: mGluR3 (Homo sapiens, UniProt Q14832)
Experiment: HEK293T-mGluR3-Gqi5 Calcium Mobilization Assay
Format: cell-based
Details: HEK293T-mGluR3-Gqi5 stable cell line; FLIPR Ca2+ fluorescence; with L-glutamate at EC20 concentration
Method: II. Biological Assays HEK293T-mGluR3-Gqi5 Calcium Mobilization Assay Reagents: • Cells: HEK293T-mGluR3-Gqi5 Stable Cell Line (MultiSpan cat# CG1190) Culture Medium: • DMEM-GlutaMAX-1 (GIBCO #10566)+10% FBS (dialyzed & heat-inactivated, Hyclone cat# SH 30079.03), 2 mM sodium pyruvate (GIBCO #11360), 1 μg/ml puromycin (GIBCO #0399) and 250 ug/ml hygromycin (GIBCO #10687-010) HBSS (GIBCO #14025), add HEPES at 20 mM for a pH of 7.4 • 384 well cell plate: poly-D-lysine-coated, black/clear bottom microplates (Corning cat#3845) • Ca^2+ dye: FLIPR Ca-4 assay kit (Molecular Devices cat# R8142) • L-Glutamate (Sigma cat #2834) Cell Plating • Plate 8000 cells per well (1×10^5 cells/ml, in 80 μl) in a black, clear bottom, 384 well plate (Corning 3845). Incubate the cell plate for 30 minutes at RT and then incubate the cells 37° C., 5% CO2 for 16-24 hours before the assay. Ca^2+ Assay Using the FLIPR • Wash the cells with HBSS 3 times using the Bravo automated pipettor. The remaining volume of HBSS is 20 μl per well. • Add 20 μl of dye loading solution to each well and incubate the cells at 37° C., 5% CO2 for 1 hour. Prepare Compound Plate: • Serial dilute test compounds in DMSO at a 1:4 ratio, starting at al 0 mM concentration. Transfer 500 nl of the diluted compounds to a Matrix plate and add 30 μl of 37° C. HBSS, by Multidrop, to each well. The final starting concentration of the compounds is 33 uM. Prepare a solution of L-Glutamate in HBSS at 5× the EC20 concentration. Transfer to a 384 well Matrix plate using a Multidrop. The EC20 concentration is determined by a test plate before the screen. Assay: • Ca^2+ fluorescence is measured in the cells using the FLIPR Tetra (Molecular Devices). Following a baseline recording of the wells for 1 minute, add 10 ul of the diluted (5×) compounds to the cell plate and record for 3 minutes.

mGluR3, sequence (Q14832 23-879): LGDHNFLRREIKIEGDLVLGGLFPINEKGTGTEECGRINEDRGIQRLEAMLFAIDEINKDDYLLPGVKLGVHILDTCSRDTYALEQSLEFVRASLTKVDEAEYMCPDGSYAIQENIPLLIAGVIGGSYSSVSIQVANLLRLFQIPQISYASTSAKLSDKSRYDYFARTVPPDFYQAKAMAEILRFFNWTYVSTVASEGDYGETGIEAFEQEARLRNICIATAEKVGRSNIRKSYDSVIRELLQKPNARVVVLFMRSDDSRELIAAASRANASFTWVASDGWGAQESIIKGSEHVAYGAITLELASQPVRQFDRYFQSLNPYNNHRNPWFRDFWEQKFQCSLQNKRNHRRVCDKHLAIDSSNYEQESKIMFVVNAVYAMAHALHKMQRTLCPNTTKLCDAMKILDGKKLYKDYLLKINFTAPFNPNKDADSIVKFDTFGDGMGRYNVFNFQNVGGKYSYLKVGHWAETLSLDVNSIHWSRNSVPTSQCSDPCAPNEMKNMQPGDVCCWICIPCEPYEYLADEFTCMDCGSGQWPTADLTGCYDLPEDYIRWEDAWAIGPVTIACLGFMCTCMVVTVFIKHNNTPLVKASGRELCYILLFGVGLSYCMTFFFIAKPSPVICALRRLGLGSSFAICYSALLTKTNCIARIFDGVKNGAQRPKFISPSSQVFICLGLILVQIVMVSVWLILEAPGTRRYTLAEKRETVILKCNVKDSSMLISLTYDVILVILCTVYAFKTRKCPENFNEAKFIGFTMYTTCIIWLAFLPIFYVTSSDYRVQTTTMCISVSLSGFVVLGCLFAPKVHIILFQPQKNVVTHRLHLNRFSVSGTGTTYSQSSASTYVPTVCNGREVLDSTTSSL

| EC50 | Compound |
| --- | --- |
| < 1000 nM | CC(C)c1nc(N2CCOCC2)c(C#N)c2c1CCCC2 [Compound 1, 1-Isopropyl-3-morpholin-4-yl-5,6,7,8-tetrahydroisoquinoline-4-carbonitrile] |
| 1000 to 10000 nM | CCCc1nc(N2CCOCC2)c(C#N)c2c1COC(C)(C)C2 [Compound 2] |
| 1000 to 10000 nM | CCc1nc(N2CCOCC2)c(C#N)c2c1CCCC2 [Compound 3] |
| 1000 to 10000 nM | N#Cc1ccc(-c2ccccc2)nc1N1CCOCC1 [Compound 4] |
| 1000 to 10000 nM | CCCc1nc(NCCN2CCOCC2)c(C#N)c2c1CCCC2 [Compound 5] |
| 1000 to 10000 nM | CCCc1nc(NCCO)c(C#N)c2c1CCCC2 [Compound 6] |
| 1000 to 10000 nM | CCc1nc(NCCCO)c(C#N)c2c1CCCC2 [Compound 7] |
| 1000 to 10000 nM | CCc1nc(NCCN)c(C#N)c2c1CSC(C)(C)C2 [Compound 8] |
